Data from US11578300B2, “Test apparatus” (Hitachi High-Tech Corporation, priority 2014, dated 2023).
Values after ≈ are worked out from the molar mass of the structure shown.

Assays:
Type in all cases: cell-based
[1] = tested on: Enterococcus faecalis (ATCC29212); assay: susceptibility test with respect to levofloxacin by microscopic observation (bacteriological test apparatus); details: Mueller-Hinton culture medium, from areas of bacteria in images over time, read-out: minimum inhibitory concentration (MIC)
Protocol: After the bacterial suspension is introduced into the culture plate 18, the bacterial suspension is in a state of being mixed with the culture liquid which is included in each of the wells, and the temperature controller 16 is set to a temperature of approximately 35° C. Culture is performed by performing incubation such that the temperature of each of the wells in the culture plate 18 is in the vicinity of the set temperature. Then, while performing the incubation, the bacteria included in each of the wells are monitored through the microscopic observation optical system. The microscopic observation (monitoring) may be performed for a set period of time from the start of the incubation till the end thereof by continuously monitoring the state of bacterial growth. Otherwise, a suitable time may be set and monitoring is performed every set time thereof so as to be able to be compared with the monitored result at the time of starting the incubation. In addition, similar to the bacteriological test apparatus in the related art, the turbidity of each of the wells may be measured through the turbidity measurement optical system while incubating the culture plate 18. The measured result may be compared with the monitored result of the microscopic observation optical system. FIGS. 10A to 13D are diagrams illustrating the results obtained by applying the present invention. […]

E. coli (ATCC25922) = assay: susceptibility test with respect to ampicillin by microscopic observation (bacteriological test apparatus)
Protocol: After the bacterial suspension is introduced into the culture plate 18, the bacterial suspension is in a state of being mixed with the culture liquid which is included in each of the wells, and the temperature controller 16 is set to a temperature of approximately 35° C. Culture is performed by performing incubation such that the temperature of each of the wells in the culture plate 18 is in the vicinity of the set temperature. Then, while performing the incubation, the bacteria included in each of the wells are monitored through the microscopic observation optical system. The microscopic observation (monitoring) may be performed for a set period of time from the start of the incubation till the end thereof by continuously monitoring the state of bacterial growth. Otherwise, a suitable time may be set and monitoring is performed every set time thereof so as to be able to be compared with the monitored result at the time of starting the incubation. In addition, similar to the bacteriological test apparatus in the related art, the turbidity of each of the wells may be measured through the turbidity measurement optical system while incubating the culture plate 18. The measured result may be compared with the monitored result of the microscopic observation optical system. FIGS. 16A to 18C are diagrams illustrating results of a susceptibility test with respect to ampicillin of E. coli (ATCC25922) performed by using the bacteriological test apparatus of the present invention. FIGS. 16A to 18C are images obtained by culturing the E. coli in Mueller-Hinton culture mediums respectively containing ampicillin having the concentrations of 0 μg/mL, 2 μg/mL, and 16 μg/mL, performing image processing of a line extracting filter and the like onto microscopic images respectively captured after (a) 0 hours, (b) 3 hours, and (c) 24 hours from the start of culture, and performing binarization. The target objects appearing black in FIGS. 16A to 18C are the E. coli. […] FIG. 19 is a graph obtained by calculating the areas of the E. coli in the images of FIGS. 16A to 18C and plotting the areas thereof periodically. […] In this manner, it was possible to obtain the MIC with respect to the ampicillin of the used E. coli based on the graph achieved by monitoring the change in the areas of the bacteria in the images. It could be confirmed that the antimicrobial susceptibility test which requires overnight culture in the related art could be carried out in a short time by using the bacteriological test apparatus of the present invention.

E coli (ATCC35218) = assay: susceptibility test of E coli treated with cefazolin by microscopic observation (bacteriological test apparatus); details: for growth of the E coli in images / bacterial number in a microscopic image: after three hours; for bacterial number in a microscopic image: FIG. 22A; for average value of the areas per one bacterium: FIG. 22C
Protocol: After the bacterial suspension is introduced into the culture plate 18, the bacterial suspension is in a state of being mixed with the culture liquid which is included in each of the wells, and the temperature controller 16 is set to a temperature of approximately 35° C. Culture is performed by performing incubation such that the temperature of each of the wells in the culture plate 18 is in the vicinity of the set temperature. Then, while performing the incubation, the bacteria included in each of the wells are monitored through the microscopic observation optical system. The microscopic observation (monitoring) may be performed for a set period of time from the start of the incubation till the end thereof by continuously monitoring the state of bacterial growth. Otherwise, a suitable time may be set and monitoring is performed every set time thereof so as to be able to be compared with the monitored result at the time of starting the incubation. In addition, similar to the bacteriological test apparatus in the related art, the turbidity of each of the wells may be measured through the turbidity measurement optical system while incubating the culture plate 18. The measured result may be compared with the monitored result of the microscopic observation optical system. FIGS. 20A-20D and 21A-21D are diagrams illustrating results of a susceptibility test of E coli (ATCC35218) treated with cefazolin performed by using the bacteriological test apparatus of the present invention. FIGS. 20A to 20D are microscopic images which are obtained by culturing the E. coli in Mueller-Hinton culture mediums respectively containing cefazolin having concentrations of 0 μg/mL, 0.5 μg/mL, 1 μg/mL, and 2 μg/mL, and captured after three hours from the start of culture. The target objects vaguely appearing in the images are the bacteria. FIGS. 21A to 21D are images obtained by respectively performing image processing onto the images of FIGS. […], performing edge detection, and performing binarization thereafter. The target objects appearing black in FIGS. 21A-21D are the E. coli. […] FIGS. 22A-22F are graphs obtained by extracting the feature values of the bacteria from the image of FIGS. 20A-20D. FIG. 22A is a graph illustrating the bacterial number in a microscopic image. […] FIG. 22B is a graph illustrating the areas of the bacteria in the microscopic image. FIG. 22C is a graph illustrating the average values of the areas per one bacterium obtained based on FIGS. 22A and 22B. […] As it also could be confirmed in FIGS. 21A-21D, the facts thereof indicate that the bacteria are elongated due to effect of cefazolin. FIGS. 22D to 22F are graphs respectively showing the perimeter length, the circularity, and the solidity (an index showing how the shape is close to a circle) per one bacterium. As the results of the elongated bacteria, it could be confirmed that the perimeter length increased in FIG. 22D, the circularity defined through […] was lowered in FIG. 22E, and the solidity defined through the area/the projection area is lowered in FIG. 22F.

C[C@H]1COc2c(N3CCN(C)CC3)c(F)cc3c(=O)c(C(=O)O)cn1c23 [levofloxacin]
MIC [1]: 1 µg/mL (≈ 2.77 µM)

CC1(C)S[C@@H]2[C@H](NC(=O)[C@H](N)c3ccccc3)C(=O)N2[C@H]1C(=O)O [ampicillin]
areas of the E. coli in the images (E. coli (ATCC25922); ampicillin 2 μg/mL, FIG. 19 graph (ii)): increased with the lapse of time
growth of the E. coli in images (E. coli (ATCC25922); ampicillin 2 μg/mL, after 24 hours, FIG. 17C): grew after 24 hours
shape of the E. coli in images (E. coli (ATCC25922); ampicillin 2 μg/mL, after three hours, FIG. 17B): elongated states
areas of the E. coli in the images (E. coli (ATCC25922); ampicillin 16 μg/mL, FIG. 19 graph (iii)): seldom increased
growth of the E. coli in images (E. coli (ATCC25922); ampicillin 16 μg/mL, FIGS. 18A-18C): did not grow without being elongated

Cc1nnc(SCC2=C(C(=O)O)N3C(=O)[C@@H](NC(=O)Cn4cnnn4)[C@H]3SC2)s1 [cefazolin]
growth of the E coli in images (E coli (ATCC35218); cefazolin 0.5 μg/mL, FIG. 21B): grew after three hours
bacterial number in a microscopic image (E coli (ATCC35218); cefazolin 0.5 μg/mL): increased through growth
average value of the areas per one bacterium (E coli (ATCC35218); cefazolin 0.5 μg/mL, compared to no antibacterial agent): the area increased
average value of the areas per one bacterium (E coli (ATCC35218); cefazolin 1 μg/mL): further increased
growth of the E coli in images (E coli (ATCC35218); cefazolin 1 μg/mL, FIG. 21C): did not quite grow after three hours and was elongated
bacterial number in a microscopic image (E coli (ATCC35218); cefazolin 1 μg/mL): did not quite grow
average value of the areas per one bacterium (E coli (ATCC35218); cefazolin 2 μg/mL): further increased
growth of the E coli in images (E coli (ATCC35218); cefazolin 2 μg/mL, FIG. 21D): did not quite grow after three hours and was elongated
bacterial number in a microscopic image (E coli (ATCC35218); cefazolin 2 μg/mL): did not quite grow
perimeter length per one bacterium (E coli (ATCC35218); elongated bacteria, concentration not given, FIG. 22D): increased
circularity per one bacterium (E coli (ATCC35218); elongated bacteria, concentration not given, FIG. 22E): lowered
solidity per one bacterium (E coli (ATCC35218); elongated bacteria, concentration not given, FIG. 22F): lowered
